Measured values as given in patent publication US10597388B2, “Pyridazinone herbicides” (FMC CORPORATION, priority 2014, dated 2020).

Tests used:
Assay in all cases: Test D controlled growth environment herbicide test, pre- and postemergence
Type in all cases: in vivo
kochia (Kochia scoparia) = test system: kochia (Kochia scoparia)
Text: (§1) Seeds of plant species selected from bluegrass (annual bluegrass, Poa annua), blackgrass (Alopecurus myosuroides), Canada thistle (Cirsium arvense), canarygrass (Phalaris minor), chickweed (common chickweed, Stellaria media), geranium, cutleaf (cutleaf geranium, Geranium dissectum), galium (catchweed bedstraw, Galium aparine), bromegrass, downy (downy bromegrass, Bromus tectorum), field poppy (Papaver rhoeas), field violet (Viola arvensis), foxtail, green (green foxtail, Setaria viridis), deadnettle (henbit deadnettle, Lamium amplexicaule), ryegrass, Italian (Italian ryegrass, Lolium multiflorum), kochia (Kochia scoparia), lambsquarters (Chenopodium album), oilseed rape (Brassica napus), pigweed (Amaranthus retroflexus), chamomile (scentless chamomile, Matricaria inodora), Russian thistle (Salsola kali), speedwell (bird's-eye speedwell, Veronica persica), barley, spring (spring barley, Hordeum vulgare), wheat, spring (spring wheat, Triticum aestivum), buckwheat, wild (wild buckwheat, Polygonum convolvulus), mustard, wild (wild mustard, Sinapis arvensis), oat, wild (wild oat, Avena fatua), radish, wild (wild radish, Raphanus raphanistrum), windgrass (Apera spica-venti), barley, winter (winter barley, Hordeum vulgare), and wheat, winter (winter wheat, Triticum aestivum) were planted into a silt loam soil and treated preemergence with test chemicals formulated in a non-phytotoxic solvent mixture which included a surfactant.
(§2) At the same time, these species were planted in pots containing Redi-Earth® planting medium (Scotts Company, 14111 Scottslawn Road, Marysville, Ohio 43041) comprising spaghnum peat moss, vermiculite, wetting agent and starter nutrients and treated with postemergence applications of the test chemicals formulated in the same manner. Plants ranged in height from 2 to 18 cm (1- to 4-leaf stage). Treated plants and controls were maintained in a controlled growth environment for 14 to 21 d after which time all species were compared to controls and visually evaluated. Plant response ratings, summarized in Table D, are based on a scale of 0 to 100 where 0 is no effect and 100 is complete control. A dash (-) response means no test result.

[1] = test system: chamomile (scentless chamomile, Matricaria inodora); details: Preemergence
Text: as §1, §2

[2] = test system: barley, spring (spring barley, Hordeum vulgare)
Text: as §1, §2

[3] = test system: chickweed (common chickweed, Stellaria media)
Text: as §1, §2

[4] = test system: field poppy (Papaver rhoeas)
Text: as §1, §2

[5] = test system: deadnettle (henbit deadnettle, Lamium amplexicaule)
Text: as §1, §2

[6] = test system: mustard, wild (wild mustard, Sinapis arvensis)
Text: as §1, §2

[7] = test system: field violet (Viola arvensis); details: Preemergence
Text: as §1, §2

[8] = test system: wheat, winter (winter wheat, Triticum aestivum)
Text: as §1, §2

[9] = test system: oat, wild (wild oat, Avena fatua)
Text: as §1, §2

[10] = test system: oilseed rape (Brassica napus)
Text: as §1, §2

[11] = test system: speedwell (bird's-eye speedwell, Veronica persica)
Text: as §1, §2

[12] = test system: radish, wild (wild radish, Raphanus raphanistrum)
Text: as §1, §2

[13] = Postemergence, 31 g ai/ha, scale 0 to 100 (0 no effect, 100 complete control)
[14] = Postemergence, 125 g ai/ha, visual rating on scale 0 (no effect) to 100 (complete control), 14 to 21 d
[15] = Postemergence, 250 g ai/ha, scale 0 to 100 (0 no effect, 100 complete control)
[16] = Preemergence, 62 g ai/ha, scale 0 to 100 (0 no effect, 100 complete control)
[17] = Preemergence, 125 g ai/ha, scale 0 to 100 (0 no effect, 100 complete control)
[18] = Preemergence, 250 g ai/ha, scale 0 to 100, 0 no effect, 100 complete control
[19] = postemergence, 62 g ai/ha, scale 0 to 100, 0 no effect, 100 complete control
[20] = 62 g ai/ha, scale 0 to 100 (0 no effect, 100 complete control)
[21] = 125 g ai/ha, scale 0 to 100 (0 no effect, 100 complete control)
[22] = 250 g ai/ha, scale 0 to 100, 0 no effect, 100 complete control

## CCc1sc2ccc(C)cc2c1-c1c(O)c(C)nn(C)c1=O [Compound 47]
Kochia (Kochia scoparia); [13]
  Kochia plant response rating: 45
Kochia (Kochia scoparia); [14]
  Plant response rating, Kochia: 95
Kochia (Kochia scoparia); [15]
  Plant response rating, Kochia: 100
Kochia (Kochia scoparia); Preemergence, 31 g ai/ha
  Plant response rating (scale of 0 to 100), Kochia: 10
Kochia (Kochia scoparia); [16]
  Plant response rating, Kochia: 10
Kochia (Kochia scoparia); [17]
  Plant response rating, Kochia: 35
Kochia (Kochia scoparia); [18]
  Plant response rating, Kochia: 40
Kochia (Kochia scoparia); [19]
  Plant response rating, Kochia: 70
[1]; 31 g ai/ha
  Plant response rating (scale of 0 to 100), Chamomile: 80
[1]; [20]
  Plant response rating, Chamomile: 80
[1]; [21]
  Plant response rating, Chamomile: 85
[1]; [22]
  Plant response rating, Chamomile: 85
[2]; [13]
  Barley, Spring plant response rating: 0
[2]; [14]
  Plant response rating, Barley, Spring: 0
[2]; [15]
  Plant response rating, Barley, Spring: 0
[2]; Preemergence, 31 g ai/ha
  Plant response rating (scale of 0 to 100), Barley, Spring: 0
[2]; [16]
  Plant response rating, Barley, Spring: 5
[2]; [17]
  Plant response rating, Barley, Spring: 15
[2]; [18]
  Barley, Spring plant response rating: 15
[2]; [19]
  Plant response rating, Barley, Spring: 0
[3]; [13]
  Chickweed plant response rating: 90
[3]; [14]
  Plant response rating, Chickweed: 95
[3]; [15]
  Plant response rating, Chickweed: 100
[3]; Preemergence, 31 g ai/ha
  Plant response rating (scale of 0 to 100), Chickweed: 90
[3]; [16]
  Plant response rating, Chickweed: 95
[3]; [17]
  Plant response rating, Chickweed: 100
[3]; [18]
  Plant response rating, Chickweed: 90
[3]; [19]
  Plant response rating, Chickweed: 95
[4]; [13]
  Field Poppy plant response rating: 80
[4]; [14]
  Plant response rating, Field Poppy: 100
[4]; [15]
  Plant response rating, Field Poppy: 100
[4]; Preemergence, 31 g ai/ha
  Plant response rating (scale of 0 to 100), Field Poppy: 60
[4]; [16]
  Plant response rating, Field Poppy: 100
[4]; [17]
  Plant response rating, Field Poppy: 100
[4]; [18]
  Plant response rating, Field Poppy: 100
[4]; [19]
  Plant response rating, Field Poppy: 100
[5]; [13]
  Deadnettle plant response rating: 20
[5]; [14]
  Plant response rating, Deadnettle: 30
[5]; [15]
  Plant response rating, Deadnettle: 30
[5]; Preemergence, 31 g ai/ha
  Plant response rating (scale of 0 to 100), Deadnettle: 0
[5]; [16]
  Plant response rating, Deadnettle: 10
[5]; [17]
  Plant response rating, Deadnettle: 10
[5]; [18]
  Plant response rating, Deadnettle: 65
[5]; [19]
  Plant response rating, Deadnettle: 20
[6]; [13]
  Mustard, Wild plant response rating: 0
[6]; [14]
  Plant response rating, Mustard, Wild: 15
[6]; [15]
  Plant response rating, Mustard, Wild: 25
[6]; Preemergence, 31 g ai/ha
  Plant response rating (scale of 0 to 100), Mustard, Wild: 10
[6]; [16]
  Plant response rating, Mustard, Wild: 20
[6]; [17]
  Plant response rating, Mustard, Wild: 40
[6]; [18]
  Plant response rating, Mustard, Wild: 65
[6]; [19]
  Plant response rating, Mustard, Wild: 0
[7]; 31 g ai/ha
  Plant response rating (scale of 0 to 100), Field Violet: 95
[7]; [20]
  Plant response rating, Field Violet: 100
[7]; [21]
  Plant response rating, Field Violet: 100
[7]; [22]
  Plant response rating, Field Violet: 100
[8]; [13]
  Wheat, Winter plant response rating: 5
[8]; [14]
  Plant response rating, Wheat, Winter: 10
[8]; [15]
  Plant response rating, Wheat, Winter: 5
[8]; Preemergence, 31 g ai/ha
  Plant response rating (scale of 0 to 100), Wheat, Winter: 5
[8]; [16]
  Plant response rating, Wheat, Winter: 5
[8]; [17]
  Plant response rating, Wheat, Winter: 10
[8]; [18]
  Plant response rating, Wheat, Winter: 10
[8]; [19]
  Plant response rating, Wheat, Winter: 5
[9]; [13]
  Oat, Wild plant response rating: 10
[9]; [14]
  Plant response rating, Oat, Wild: 20
[9]; [15]
  Plant response rating, Oat, Wild: 40
[9]; Preemergence, 31 g ai/ha
  Plant response rating (scale of 0 to 100), Oat, Wild: 10
[9]; [16]
  Plant response rating, Oat, Wild: 20
[9]; [17]
  Plant response rating, Oat, Wild: 35
[9]; [18]
  Plant response rating, Oat, Wild: 40
[9]; [19]
  Plant response rating, Oat, Wild: 15
[10]; [13]
  Oilseed Rape plant response rating: 20
[10]; [14]
  Plant response rating, Oilseed Rape: 55
[10]; [15]
  Plant response rating, Oilseed Rape: 70
[10]; Preemergence, 31 g ai/ha
  Plant response rating (scale of 0 to 100), Oilseed Rape: 0
[10]; [16]
  Plant response rating, Oilseed Rape: 0
[10]; [17]
  Plant response rating, Oilseed Rape: 10
[10]; [18]
  Plant response rating, Oilseed Rape: 15
[10]; [19]
  Plant response rating, Oilseed Rape: 20
[11]; [13]
  Speedwell plant response rating: 10
[11]; [14]
  Plant response rating, Speedwell: 40
[11]; [15]
  Plant response rating, Speedwell: 50
[11]; Preemergence, 31 g ai/ha
  Plant response rating (scale of 0 to 100), Speedwell: 25
[11]; [16]
  Plant response rating, Speedwell: 25
[11]; [17]
  Plant response rating, Speedwell: 80
[11]; [18]
  Plant response rating, Speedwell: 100
[11]; [19]
  Plant response rating, Speedwell: 10
[12]; [13]
  Radish, Wild plant response rating: 5
[12]; [14]
  Plant response rating, Radish, Wild: 5
[12]; [15]
  Plant response rating, Radish, Wild: 20
[12]; Preemergence, 31 g ai/ha
  Plant response rating (scale of 0 to 100), Radish, Wild: 20
[12]; [16]
  Plant response rating, Radish, Wild: 25
[12]; [17]
  Plant response rating, Radish, Wild: 100
[12]; [18]
  Plant response rating, Radish, Wild: 85
[12]; [19]
  Plant response rating, Radish, Wild: 10
